In PubChem BioAssay (NCI):
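In this assay, cells in 96-well plates receive the compound at five concentrations for 48 hours. Endpoints are linearly interpolated between the surrounding concentrations. GI50 is the concentration that inhibits growth by half. TGI: total growth inhibition.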

Columns and labels:
Test in all cases: NCI anticancer screen, dose series, 48 h; in the data active means GI50 below about 0.43 µM; inactive means the rest
786-0 renal = system: 786-0 renal
A549 NSCLC = system: A549 NSCLC
ACHN renal = system: ACHN renal
BT-549 breast = system: BT-549 breast
CAKI-1 renal = system: CAKI-1 renal
COLO 205 colon = system: COLO 205 colon
DU-145 prostate = system: DU-145 prostate
EKVX NSCLC = system: EKVX NSCLC
HCT-116 colon = system: HCT-116 colon
HCT-15 colon = system: HCT-15 colon
HL-60(TB) leukemia = system: HL-60(TB) leukemia
HOP-62 NSCLC = system: HOP-62 NSCLC
HOP-92 NSCLC = system: HOP-92 NSCLC
HS 578T breast = system: HS 578T breast
IGROV1 ovarian = system: IGROV1 ovarian
K-562 leukemia = system: K-562 leukemia
KM12 colon = system: KM12 colon
LOX IMVI melanoma = system: LOX IMVI melanoma
M14 melanoma = system: M14 melanoma
MCF7 breast = system: MCF7 breast
MDA-MB-231 breast = system: MDA-MB-231 breast
MDA-MB-435 = system: MDA-MB-435
NCI-H23 lung = system: NCI-H23 lung
NCI-H460 lung = system: NCI-H460 lung
NCI-H522 lung = system: NCI-H522 lung
NCI/ADR-RES ovarian = system: NCI/ADR-RES ovarian
OVCAR-3 ovarian = system: OVCAR-3 ovarian
OVCAR-5 ovarian = system: OVCAR-5 ovarian
OVCAR-8 ovarian = system: OVCAR-8 ovarian
PC-3 prostate = system: PC-3 prostate
RPMI-8226 leukemia = system: RPMI-8226 leukemia
SF-268 CNS = system: SF-268 CNS
SF-295 CNS = system: SF-295 CNS
SF-539 CNS = system: SF-539 CNS
SK-MEL-2 melanoma = system: SK-MEL-2 melanoma
SK-MEL-5 melanoma = system: SK-MEL-5 melanoma
SK-OV-3 ovarian = system: SK-OV-3 ovarian
SN12C renal = system: SN12C renal
SNB-19 CNS = system: SNB-19 CNS
SR leukemia = system: SR leukemia
SW-620 colon = system: SW-620 colon
T-47D breast = system: T-47D breast
TK-10 renal = system: TK-10 renal
U251 CNS = system: U251 CNS
UACC-257 melanoma = system: UACC-257 melanoma
UACC-62 melanoma = system: UACC-62 melanoma
UO-31 renal = system: UO-31 renal
A498 renal = system: A498 renal
CCRF-CEM leukemia = system: CCRF-CEM leukemia
HCC-2998 colon = system: HCC-2998 colon
HT29 colon = system: HT29 colon
MALME-3M melanoma = system: MALME-3M melanoma
MOLT-4 leukemia = system: MOLT-4 leukemia
NCI-H226 lung = system: NCI-H226 lung
OVCAR-4 ovarian = system: OVCAR-4 ovarian
RXF 393 renal = system: RXF 393 renal
SK-MEL-28 melanoma = system: SK-MEL-28 melanoma
SNB-75 CNS = system: SNB-75 CNS

COc1cccc(C2NC(=S)NC(C)=C2C(=O)Nc2ccc(F)c(Cl)c2)c1 (centres undefined)
47.7 µM: TGI (NCI-H23 lung)
> 50 µM: TGI (786-0 renal) | TGI (A549 NSCLC) | TGI (ACHN renal) | TGI (CAKI-1 renal) | TGI (COLO 205 colon) | TGI (DU-145 prostate) | TGI (EKVX NSCLC) | TGI (HCT-116 colon) | TGI (HCT-15 colon) | TGI (HL-60(TB) leukemia) | TGI (HOP-62 NSCLC) | TGI (HOP-92 NSCLC) | TGI (IGROV1 ovarian) | TGI (KM12 colon) | TGI (LOX IMVI melanoma) | TGI (M14 melanoma) | TGI (MCF7 breast) | TGI (MDA-MB-231 breast) | TGI (MDA-MB-435) | TGI (NCI-H460 lung) | TGI (NCI-H522 lung) | TGI (NCI/ADR-RES ovarian) | TGI (OVCAR-3 ovarian) | TGI (OVCAR-8 ovarian) | TGI (PC-3 prostate) | TGI (RPMI-8226 leukemia) | TGI (SF-268 CNS) | TGI (SF-295 CNS) | TGI (SF-539 CNS) | TGI (SK-MEL-2 melanoma) | TGI (SK-OV-3 ovarian) | TGI (SN12C renal) | TGI (SNB-19 CNS) | TGI (SW-620 colon) | TGI (T-47D breast) | TGI (TK-10 renal) | TGI (U251 CNS) | TGI (UACC-62 melanoma) | TGI (UO-31 renal)
49.2 µM: TGI (K-562 leukemia)
30.7 µM: TGI (UACC-257 melanoma)
32.9 µM: TGI (SK-MEL-5 melanoma)
inactive: GI50 (786-0 renal) > 50 µM | GI50 (A549 NSCLC) 20.8 µM | GI50 (ACHN renal) 23.8 µM | GI50 (BT-549 breast) 15.2 µM | GI50 (CAKI-1 renal) 48.9 µM | GI50 (COLO 205 colon) 27.2 µM | GI50 (DU-145 prostate) 36.3 µM | GI50 (EKVX NSCLC) 22.8 µM | GI50 (HCT-116 colon) 23.1 µM | GI50 (HCT-15 colon) 23.7 µM | GI50 (HL-60(TB) leukemia) 17.4 µM | GI50 (HOP-62 NSCLC) > 50 µM | GI50 (HOP-92 NSCLC) > 50 µM | GI50 (HS 578T breast) 13.5 µM | GI50 (IGROV1 ovarian) 27.6 µM | GI50 (K-562 leukemia) 12.6 µM | GI50 (KM12 colon) 18.2 µM | GI50 (LOX IMVI melanoma) 17.6 µM | GI50 (M14 melanoma) 25.2 µM | GI50 (MCF7 breast) 20.2 µM | GI50 (MDA-MB-231 breast) 29 µM | GI50 (MDA-MB-435) 27.3 µM | GI50 (NCI-H23 lung) 18.5 µM | GI50 (NCI-H460 lung) 43.2 µM | GI50 (NCI-H522 lung) 20.8 µM | GI50 (NCI/ADR-RES ovarian) 18.2 µM | GI50 (OVCAR-3 ovarian) 41.3 µM | GI50 (OVCAR-5 ovarian) 12.1 µM | GI50 (OVCAR-8 ovarian) 34.6 µM | GI50 (PC-3 prostate) 23.2 µM | GI50 (RPMI-8226 leukemia) 11.6 µM | GI50 (SF-268 CNS) 28.7 µM | GI50 (SF-295 CNS) 22.4 µM | GI50 (SF-539 CNS) > 50 µM | GI50 (SK-MEL-2 melanoma) 29.3 µM | GI50 (SK-MEL-5 melanoma) 13.3 µM | GI50 (SK-OV-3 ovarian) > 50 µM | GI50 (SN12C renal) 26.1 µM | GI50 (SNB-19 CNS) > 50 µM | GI50 (SR leukemia) 15.8 µM | GI50 (SW-620 colon) > 50 µM | GI50 (T-47D breast) > 50 µM | GI50 (TK-10 renal) 30.1 µM | GI50 (U251 CNS) 23.9 µM | GI50 (UACC-257 melanoma) 10.4 µM | GI50 (UACC-62 melanoma) 29.3 µM | GI50 (UO-31 renal) 20.4 µM
46.1 µM: TGI (BT-549 breast)
38.9 µM: TGI (OVCAR-5 ovarian)
40.2 µM: TGI (HS 578T breast) | TGI (SR leukemia)

C/C(=C\CCc1ccoc1)CC/C=C(\C)CCCN1CCC(CO)CC1
3.92 µM: TGI (M14 melanoma)
6.54 µM: TGI (TK-10 renal)
4.39 µM: TGI (MDA-MB-231 breast)
14.7 µM: TGI (NCI-H23 lung)
18.6 µM: TGI (OVCAR-5 ovarian)
14.6 µM: TGI (NCI/ADR-RES ovarian)
16.7 µM: TGI (ACHN renal) | TGI (UO-31 renal)
3.47 µM: TGI (LOX IMVI melanoma)
5.96 µM: TGI (A498 renal)
4.29 µM: TGI (SR leukemia)
9.6 µM: TGI (HOP-62 NSCLC)
3.52 µM: TGI (MALME-3M melanoma)
5.41 µM: TGI (KM12 colon) | TGI (SF-295 CNS)
2.84 µM: TGI (SK-MEL-5 melanoma)
5.83 µM: TGI (NCI-H522 lung)
9.24 µM: TGI (U251 CNS)
4.48 µM: TGI (RPMI-8226 leukemia)
10.4 µM: TGI (HCT-116 colon)
20.6 µM: TGI (DU-145 prostate)
inactive: GI50 (786-0 renal) 2.35 µM | GI50 (A498 renal) 1.96 µM | GI50 (A549 NSCLC) 3.26 µM | GI50 (ACHN renal) 4.32 µM | GI50 (BT-549 breast) 2.77 µM | GI50 (CAKI-1 renal) 4.26 µM | GI50 (CCRF-CEM leukemia) 2.42 µM | GI50 (COLO 205 colon) 1.94 µM | GI50 (DU-145 prostate) 8.41 µM | GI50 (HCC-2998 colon) 2.1 µM | GI50 (HCT-116 colon) 2.96 µM | GI50 (HCT-15 colon) 3.07 µM | GI50 (HL-60(TB) leukemia) 1.96 µM | GI50 (HOP-62 NSCLC) 3.39 µM | GI50 (HOP-92 NSCLC) 1.44 µM | GI50 (HS 578T breast) 2.6 µM | GI50 (HT29 colon) 2.26 µM | GI50 (IGROV1 ovarian) 5.33 µM | GI50 (K-562 leukemia) 1.52 µM | GI50 (KM12 colon) 2.45 µM | GI50 (LOX IMVI melanoma) 1.81 µM | GI50 (M14 melanoma) 1.94 µM | GI50 (MALME-3M melanoma) 1.79 µM | GI50 (MCF7 breast) 3.24 µM | GI50 (MDA-MB-231 breast) 1.73 µM | GI50 (MDA-MB-435) 3.07 µM | GI50 (MOLT-4 leukemia) 2.32 µM | GI50 (NCI-H226 lung) 6.16 µM | GI50 (NCI-H23 lung) 3.78 µM | GI50 (NCI-H460 lung) 2.08 µM | GI50 (NCI-H522 lung) 2.17 µM | GI50 (NCI/ADR-RES ovarian) 3.69 µM | GI50 (OVCAR-3 ovarian) 3.78 µM | GI50 (OVCAR-4 ovarian) 3.28 µM | GI50 (OVCAR-5 ovarian) 4.39 µM | GI50 (OVCAR-8 ovarian) 5.19 µM | GI50 (RPMI-8226 leukemia) 2.03 µM | GI50 (RXF 393 renal) 1.54 µM | GI50 (SF-268 CNS) 5.65 µM | GI50 (SF-295 CNS) 2.28 µM | GI50 (SF-539 CNS) 2.39 µM | GI50 (SK-MEL-28 melanoma) 1.89 µM | GI50 (SK-MEL-5 melanoma) 1.5 µM | GI50 (SK-OV-3 ovarian) 6.94 µM | GI50 (SN12C renal) 4.54 µM | GI50 (SNB-19 CNS) 4.61 µM | GI50 (SNB-75 CNS) 2.1 µM | GI50 (SR leukemia) 1.66 µM | GI50 (SW-620 colon) 2.06 µM | GI50 (T-47D breast) 2.51 µM | GI50 (TK-10 renal) 2.41 µM | GI50 (U251 CNS) 2.41 µM | GI50 (UACC-257 melanoma) 2.16 µM | GI50 (UACC-62 melanoma) 1.77 µM | GI50 (UO-31 renal) 3.85 µM
7.79 µM: TGI (SNB-75 CNS)
18.9 µM: TGI (SN12C renal)
3.86 µM: TGI (K-562 leukemia)
5.08 µM: TGI (SW-620 colon)
8.08 µM: TGI (HS 578T breast)
16.5 µM: TGI (CAKI-1 renal)
13.8 µM: TGI (A549 NSCLC)
7.48 µM: TGI (HT29 colon)
4.03 µM: TGI (HCC-2998 colon) | TGI (SK-MEL-28 melanoma)
19 µM: TGI (IGROV1 ovarian) | TGI (OVCAR-8 ovarian)
14.8 µM: TGI (OVCAR-4 ovarian)
20 µM: TGI (SK-OV-3 ovarian)
3.95 µM: TGI (HL-60(TB) leukemia)
12.1 µM: TGI (BT-549 breast)
3.74 µM: TGI (UACC-62 melanoma)
6.9 µM: TGI (SF-539 CNS)
10.8 µM: TGI (MDA-MB-435)
6.16 µM: TGI (HOP-92 NSCLC)
11.6 µM: TGI (MCF7 breast)
13.7 µM: TGI (OVCAR-3 ovarian)
5.12 µM: TGI (UACC-257 melanoma)
4.37 µM: TGI (NCI-H460 lung)
8.92 µM: TGI (T-47D breast)
3.98 µM: TGI (COLO 205 colon)
5.37 µM: TGI (786-0 renal)
12 µM: TGI (HCT-15 colon)
22.3 µM: TGI (NCI-H226 lung)
6.47 µM: TGI (CCRF-CEM leukemia)
19.4 µM: TGI (SF-268 CNS) | TGI (SNB-19 CNS)
4.26 µM: TGI (RXF 393 renal)
5.67 µM: TGI (MOLT-4 leukemia)
